Each structure is given as a SMILES string. Bounds are passed on as bounds.

human ACSS2 protein, sequence (Q9NR19 whole entry): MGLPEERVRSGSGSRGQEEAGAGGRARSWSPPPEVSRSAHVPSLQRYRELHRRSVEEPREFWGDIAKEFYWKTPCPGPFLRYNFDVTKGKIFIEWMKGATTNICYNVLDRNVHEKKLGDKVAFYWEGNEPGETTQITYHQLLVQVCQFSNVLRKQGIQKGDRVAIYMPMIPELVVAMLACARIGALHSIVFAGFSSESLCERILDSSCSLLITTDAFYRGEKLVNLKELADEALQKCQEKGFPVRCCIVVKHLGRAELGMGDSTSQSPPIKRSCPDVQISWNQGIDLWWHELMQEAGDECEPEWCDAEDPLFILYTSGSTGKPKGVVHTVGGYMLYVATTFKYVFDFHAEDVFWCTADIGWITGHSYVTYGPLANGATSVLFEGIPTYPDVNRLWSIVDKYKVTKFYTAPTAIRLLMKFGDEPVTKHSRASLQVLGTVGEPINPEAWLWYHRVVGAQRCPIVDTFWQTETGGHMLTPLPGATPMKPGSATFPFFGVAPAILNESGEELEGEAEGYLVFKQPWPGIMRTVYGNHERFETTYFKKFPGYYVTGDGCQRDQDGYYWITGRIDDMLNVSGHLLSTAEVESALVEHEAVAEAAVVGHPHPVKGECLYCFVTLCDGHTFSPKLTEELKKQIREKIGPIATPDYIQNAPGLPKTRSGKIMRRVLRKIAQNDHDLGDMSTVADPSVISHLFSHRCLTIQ

The target in this test is human ACSS2 protein (Homo sapiens (Human), UniProt Q9NR19). Description: ACSS2 Cell-Free Activity Assay (Cell-Free IC50). Particulars: 10 nM human ACSS2 protein, 90 minutes at 37 C, pyrophosphatase-coupled, Biomol Green absorbance at 620 nm; read-out: ACSS2 Biochemical IC50. An excerpt:
ACSS2 Cell-Free Activity Assay (Cell-Free IC50)
Consider `CCC(F)(F)c1cccc(NC(=O)c2c(C)nn(-c3ccc(OC)cc3)[n+]2[O-])c1` [Compound 253, 5-((3-(1,1-difluoropropyl)phenyl)carbamoyl)-2-(4-methoxyphenyl)-4-methyl-2H-1,2,3-triazole 1-oxide], for which the IC50 is more than 0.1 µM.

Consider `Cc1nn(-c2ccc(OC(F)F)c(-c3cccnc3)c2)c(C)c1C(=O)Nc1cccc(C(C)(F)F)c1` [Compound 179, N-(3-(1,1-difluoroethyl)phenyl)-1-(4-(difluoromethoxy)-3-(pyridin-3-yl)phenyl)-3,5-dimethyl-1H-pyrazole-4-carboxamide], for which the IC50 fell in the range of 0.001 to 0.1 µM.

`CC1=NN(c2ccc(OC(F)F)cc2)C(=O)C1(C)NC(=O)c1cccc(C(C)(F)F)c1` (centres unmarked) [Compound 198, 3-(1,1-difluoroethyl)-N-(1-(4-(difluoromethoxy)phenyl)-3,4-dimethyl-5-oxo-4,5-dihydro-1H-pyrazol-4-yl)benzamide]: the IC50 was more than 0.1 µM.

Take `COc1c(Cc2ccc(Cl)cc2)cc(N2N=C(C)C(C(=O)Nc3cccc(C(C)(F)F)c3)C2=O)cc1-c1ccccc1` (centres unmarked) [Compound 224, 1-(5-(4-chlorobenzyl)-6-methoxy-[1,1’-biphenyl]-3-yl)-N-(3-(1,1-difluoroethyl)phenyl)-3-methyl-5-oxo-4,5-dihydro-1H-pyrazole-4-carboxamide]: the IC50 was 0.001 to 0.1 µM.

As to `CCCc1cc(N2N=C(C)C(C(=O)Nc3cccc(C(F)(F)CC)c3)C2=O)cc(-c2ccccc2)c1OC` (centres unmarked) [Compound 225, N-(3-(1,1-difluoropropyl)phenyl)-1-(6-methoxy-5-propyl-[1,1’-biphenyl]-3-yl)-3-methyl-5-oxo-4,5-dihydro-1H-pyrazole-4-carboxamide], the 50% inhibitory concentration (IC50) fell in the range of 0.001 to 0.1 µM.

As for `Cc1nn(-c2ccc(OC(F)F)c(-c3cccnc3)c2)c(OC(=O)N2CCC(N3CCCCC3)CC2)c1C(=O)Nc1cccc(C(C)(F)F)c1` [Compound 190, 4-((3-(1,1-difluoroethyl)phenyl)carbamoyl)-1-(4-(difluoromethoxy)-3-(pyridin-3-yl)phenyl)-3-methyl-1H-pyrazol-5-yl [1,4′-bipiperidine]-1′-carboxylate], the IC50 lay in the range of 0.001 to 0.1 µM.

Consider `CC1=NN(c2ccc(OC(F)F)c(-c3cccnc3)c2)C(=O)C1(F)C(=O)Nc1cccc(C(C)(F)F)c1` (centres unmarked) [Compound 206, N-(3-(1,1-difluoroethyl)phenyl)-1-(4-(difluoromethoxy)-3-(pyridin-3-yl)phenyl)-4-fluoro-3-methyl-5-oxo-4,5-dihydro-1H-pyrazole-4-carboxamide], for which the IC50 was less than 0.001 µM.

For `CCCc1cc(N2N=C(C)C(C(=O)Nc3cccc(C(C)(F)F)c3)C2=O)cc(-c2ccccc2)c1OC` (centres unmarked) [Compound 161, N-(3-(1,1-difluoroethyl)phenyl)-1-(6-methoxy-5-propyl-[1,1′-biphenyl]-3-yl)-3-methyl-5-oxo-4,5-dihydro-1H-pyrazole-4-carboxamide], the IC50 was less than 0.001 µM.

In the case of `Cc1nn(-c2ccc(OC(F)F)cc2)c(CC(C)C)c1C(=O)Nc1cccc(C(C)(F)F)c1` [Compound 150, N-(3-(1,1-difluoroethyl)phenyl)-1-(4-(difluoromethoxy)phenyl)-5-isobutyl-3-methyl-1H-pyrazole-4-carboxamide], the IC50 is more than 0.1 µM.

Take `CC1=NN(c2ccc(OC(F)F)cc2)C(=O)C1(C)C(=O)Nc1cc(F)cc(Cl)c1` (centres unmarked) [Compound 166, N-(3-chloro-5-fluoro-phenyl)-1-[4-(difluoromethoxy)phenyl]-3,4-dimethyl-5-oxo-pyrazole-4-carboxamide]: the IC50 was more than 0.1 µM.

For `CCC(F)(F)c1cccc(NC(=O)c2c(C)oc(-c3ccc(OC)cc3)[n+]2[O-])c1` [Compound 250, 4-((3-(1,1-difluoropropyl)phenyl)carbamoyl)-2-(4-methoxyphenyl)-5-methyloxazole 3-oxide], the IC50 is more than 0.1 µM.

For the molecule `Cc1nn(-c2cc(-c3ccccc3)c(OC(F)F)c(-c3ccccc3)c2)cc1C(=O)Nc1cccc(C(C)(F)F)c1` [Compound 176, N-(3-(1,1-difluoroethyl)phenyl)-1-(2′-(difluoromethoxy)-[1,1′:3′,1″-terphenyl]-5′-yl)-3-methyl-1H-pyrazole-4-carboxamide], the IC50 is 0.001 to 0.1 µM.

Turning to `Cc1ncc(-c2ccc(OC(F)F)c(-c3ccccc3)c2)nc1C(=O)Nc1cccc(C(C)(F)F)c1` [Compound 118, N-[3-(1,1-difluoroethyl)phenyl]-6-[4-(difluoromethoxy)-3-phenyl-phenyl]-3-methyl-pyrazine-2-carboxamide], the half-inhibitory concentration (IC50) was more than 0.1 µM.

For the molecule `CC1=NN(c2ccc(OC(F)F)cc2)C(=O)C1C(=O)Nc1cccc(C(F)(F)C2CCC2)c1` (centres unmarked) [Compound 101, N-(3-(cyclobutyldifluoromethyl)phenyl)-1-(4-(difluoromethoxy)phenyl)-3-methyl-5-oxo-4,5-dihydro-1H-pyrazole-4-carboxamide], the half-inhibitory concentration (IC50) was in the range of 0.001 to 0.1 µM.

For the molecule `Cc1nn(-c2ccc(OC(F)F)cc2)c(C)c1C(=O)Nc1cccc(C(C)(F)F)c1` [Compound 184, N-(3-(1,1-difluoroethyl)phenyl)-1-(4-(difluoromethoxy)phenyl)-3,5-dimethyl-1H-pyrazole-4-carboxamide], the IC50 is more than 0.1 µM.

`CCC(F)(F)c1cccc(NC(=O)c2cnc(-c3ccc(OC(F)F)c(-c4ccccc4)c3)nc2C)c1` [Compound 138, 2-[4-(difluoromethoxy)-3-phenyl-phenyl]-N-[3-(1,1-difluoropropyl)phenyl]-4-methyl-pyrimidine-5-carboxamide]: the IC50 was more than 0.1 µM.

`Cc1nn(-c2ccc(OC(F)F)cc2)c(OC(=O)N2CCN(CCO)CC2)c1C(=O)Nc1cccc(C(C)(F)F)c1` [Compound 191, 4-((3-(1,1-difluoroethyl)phenyl)carbamoyl)-1-(4-(difluoromethoxy)phenyl)-3-methyl-1H-pyrazol-5-yl 4-(2-hydroxyethyl)piperazine-1-carboxylate]: the IC50 is 0.001 to 0.1 µM.

`Cc1nn(-c2ccc(OC(F)F)c(-c3ccccc3)c2)c(C)c1C(=O)Nc1cccc(C(C)(F)F)c1` [Compound 178]: the IC50 lay in the range of 0.001 to 0.1 µM.

As for `CCC(F)(F)c1cccc(NC(=O)c2cc(C)nc(-c3cc(C)cc(-c4ccccc4)c3)n2)c1` [Compound 226, N-(3-(1,1-difluoropropyl)phenyl)-6-methyl-2-(5-methyl-[1,1′-biphenyl]-3-yl)pyrimidine-4-carboxamide], the IC50 is more than 0.1 µM.

Regarding `COc1ccc(-c2ncc(C)c(C(=O)Nc3cccc(C(C)(F)F)c3)n2)cc1` [Compound 247, N-(3-(1,1-difluoroethyl)phenyl)-2-(4-methoxyphenyl)-5-methylpyrimidine-4-carboxamide], the IC50 was in the range of 0.001 to 0.1 µM.

Consider `CCC(F)(F)c1cccc(NC(=O)c2nc(-c3ccc(OC(F)F)c(-c4ccccc4)c3)oc2C)c1` [Compound 123, 2-[4-(difluoromethoxy)-3-phenyl-phenyl]-N-[3-(1,1-difluoropropyl)phenyl]-5-methyl-oxazole-4-carboxamide], for which the IC50 is more than 0.1 µM.

For `Cc1oc(-c2ccc(OC(F)F)c(-c3cccnc3)c2)nc1C(=O)Nc1cccc(C(C)(F)F)c1` [Compound 220, N-(3-(1,1-difluoroethyl)phenyl)-2-(4-(difluoromethoxy)-3-(pyridin-3-yl)phenyl)-5-methyloxazole-4-carboxamide], the IC50 is more than 0.1 µM.

In the case of `CCC(F)(F)c1cccc(NC(=O)c2c(C)[nH]c(-c3ccc(OC)cc3)[n+]2[O-])c1` [Compound 248, 4-((3-(1,1-difluoropropyl)phenyl)carbamoyl)-2-(4-methoxyphenyl)-5-methyl-1H-imidazole 3-oxide], the IC50 is less than 0.001 µM.

Values taken from patent US12441689B2 (EpiVario, Inc., priority 2019, dated 2025).
